Active and inactive are the calls of the source.
Experiments:
[1] = target: Cytochrome P450 2C19 (Homo sapiens, UniProt P33261); test: qHTS Assay for Inhibitors and Substrates of Cytochrome P450 2C19. [Related pubchem assays: 410 ]; format: ADME; details: read-out: Potency
[2] = inhibitors of Bluetongue virus cytopathic effect, confirmation, arbovirus, BSR cells (AID 1250); format: functional;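 further: protection from viral cytopathic effect measured as cell viability by ATP luminescence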
[3] = target: Luciferin 4-monooxygenase (Photinus pyralis, UniProt P08659); test: firefly luciferase enzyme inhibitors, dose response, biochemical, luminescence (AID 1891)
[4] = Luminescence Cell-Based Dose Confirmation HTS to Identify Inhibitors of Platelet Dense Granule Release. [Related pubchem assays: 1663 (Primary HTS), 1678 (Summary of Project)]; format: functional
[5] = Late stage counterscreen results from the probe development effort to identify activators of signal transducer and activator of transcription 1 (STAT1): luminescence-based cell-based dose response assay to identify cytotoxic compounds.; format: functional
[6] = target: Neuropeptide Y receptor type 1 (Homo sapiens, UniProt P25929); format: functional;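 further: HEK293 cells with a CNG channel challenged with NPY then isoproterenol; potency as antagonist that reverses NPY suppression of cAMP signal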
[7] = target: Neuropeptide Y receptor type 2 (Homo sapiens, UniProt P49146); format: functional, cell-based;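 further: HEK293 cells expressing the receptor and a CNG channel; stimulus was NPY near EC95 followed by isoproterenol to raise cAMP; antagonist potency measured as restoring cAMP signal that NPY suppresses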
[8] = target: Mucolipin-3 (Homo sapiens, UniProt Q8TDD5); test: Dose response cell-based high-throughput screening assay for agonists of the transient receptor potential channel ML3 (TRPML3). [Related pubchem assays: 1526, 1424, 1448 ]; format: functional
[9] = target: Ion channel NompC (Danio rerio, UniProt Q7T1G6); test: Fluorescence counterscreen assay for TRPML3 agonists: dose response cell-based high-throughput screening assay to identify agonists of the transient receptor potential channel N1 (TRPN1). [Related pubchem assays: 1526, 1424, 1448 ]; format: functional
[10] = target: Sphingosine 1-phosphate receptor 2 (Homo sapiens, UniProt O95136); test: Dose Response Cell Based Assay for Agonists of the S1P2 Receptor of Purchased Analogues. [Related pubchem assays: 729, 843, 854, 736 ]; format: functional
[11] = NIH-3T3 fibroblast cytotoxicity, dose response, cytotoxicity control, cell-based, fluorescence, Alamar Blue, secondary assay (AID 2327); format: functional;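 further: NIH-3T3 mouse fibroblasts cultured with fluconazole at 8 µg/mL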
[12] = inhibitors of firefly luciferase expression or activity, dose response, H4 neuroglioma cells, luminescence (AID 1990); format: functional, cell-based
[13] = Luminescence Cell-Based Dose Response HTS to Identify Inhibitors of 5'UTR Stem-Loop Driven Prion Protein mRNA Translation in H4 Neuroglioblastoma Cells. [Related pubchem assays: 1827 (Project Summary), 1813 (Primary HTS)]; format: functional
[14] = inhibitors of SNCA 5'UTR-driven reporter translation, confirmation, H4 neuroglioma cells, luminescence (AID 1988); format: functional, cell-based
[15] = C. albicans growth with fluconazole, confirmation, fluorescence, retest (AID 2467); format: functional, cell-based
[16] = target: Voltage-gated inwardly rectifying potassium channel KCNH2 (Homo sapiens, UniProt Q12809); test: hERG protection from proarrhythmic block, potency, dose response, cell-based, thallium flux (AID 2121); format: ADME
[17] = target: Exodeoxyribonuclease V (Escherichia coli (strain K12), UniProt P04993+P07648+P08394); test: E. coli RecBCD inhibitors, dose response, counter-screen for AddAB inhibitor project, absorbance, V66 E. coli, mutant T4 phage (AID 492957); format: functional, cell-based, Escherichia coli str. K-12 substr. MG1655
[18] = Luminescence Cell-Based Dose Retest to Confirm Inhibitors of Cancer Stem Cells. [Related pubchem assays (depositor defined):AID2717, AID2721]; format: functional; details: Homo sapiens
[19] = Counterscreen for AddAB inhibitors: absorbance-based bacterial cell-based high throughput dose response assay for inhibitors of bacterial viability. [Related pubchem assays (depositor defined):AID435030, AID449728, AID449731, AID488942, AID488955, AID488956]; format: functional
[20] = Shn3 3'UTR reporter inhibitors, dose response, cell-based, Clone20 osteoblasts, firefly luciferase, cherry-picked (AID 624132); format: functional;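 further: firefly luciferase luminescence from reporter carrying the Shn3 3'UTR in osteoblasts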
[21] = HepG2 cell cytotoxicity, dose response, cytotoxicity control for Shn3 inhibitor project, CellTiter-Glo, cherry-picked (AID 624134); format: functional, cell-based
[22] = control 3'UTR Renilla luciferase suppression, dose response, counter-screen for Shn3 inhibitor project, cell-based, Clone20-Shn3RL, cherry-picked (AID 624133); format: functional
[23] = target: Cytochrome P450 2D6 (Homo sapiens, UniProt P10635);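 further: CYP2D6 member of a cytochrome P450 panel assay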
[24] = target: T1, Cytochrome P450 1A2 (Homo sapiens, UniProt P05177);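 further: PubChem cytochrome P450 panel assay, CYP1A2 panel member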
T1 sequence (P05177 whole entry): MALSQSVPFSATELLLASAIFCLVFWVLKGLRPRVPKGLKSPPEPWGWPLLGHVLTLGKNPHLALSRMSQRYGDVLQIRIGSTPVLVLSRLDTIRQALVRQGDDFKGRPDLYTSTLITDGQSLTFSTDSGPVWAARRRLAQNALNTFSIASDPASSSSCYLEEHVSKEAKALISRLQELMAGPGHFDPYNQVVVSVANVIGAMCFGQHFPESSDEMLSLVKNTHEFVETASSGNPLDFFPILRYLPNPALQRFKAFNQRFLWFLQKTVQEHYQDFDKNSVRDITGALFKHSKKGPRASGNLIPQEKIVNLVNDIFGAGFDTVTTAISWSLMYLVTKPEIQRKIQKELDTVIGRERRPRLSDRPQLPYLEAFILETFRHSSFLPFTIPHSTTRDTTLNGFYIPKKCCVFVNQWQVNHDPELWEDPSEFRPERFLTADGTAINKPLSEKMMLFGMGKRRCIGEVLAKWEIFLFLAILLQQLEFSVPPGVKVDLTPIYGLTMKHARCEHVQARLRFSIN

[25] = target: Genome polyprotein (Hepatitis C virus, UniProt Q2Q167); test: HCV core protein dimerization inhibitors, dose response, biochemical, TR-FRET (AID 2159); set-up: species or system Hepacivirus hominis;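 further: blocks dimerization of HCV core protein measured by TR-FRET between tagged core106 pairs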
[26] = target: T2, Carboxy-terminal domain RNA polymerase II polypeptide A small phosphatase 1 (Homo sapiens, UniProt Q9GZU7); test: inhibitors of CTDSP1, concentration-response testing, biochemical assay, absorbance-based, actives from ultra-high-throughput screening (AID 540297); format: functional
T2 sequence (Q9GZU7 whole entry): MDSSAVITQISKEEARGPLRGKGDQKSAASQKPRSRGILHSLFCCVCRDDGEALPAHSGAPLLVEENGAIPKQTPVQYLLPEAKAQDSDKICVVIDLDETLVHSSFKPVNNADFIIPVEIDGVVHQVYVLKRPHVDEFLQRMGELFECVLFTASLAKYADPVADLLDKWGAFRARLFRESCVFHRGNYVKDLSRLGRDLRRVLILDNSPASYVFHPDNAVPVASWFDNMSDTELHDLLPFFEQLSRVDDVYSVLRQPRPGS

[27] = target: T3, Probable nicotinate-nucleotide adenylyltransferase (Staphylococcus aureus (strain N315), UniProt P65502); format: functional, Staphylococcus aureus subsp. aureus N315;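 on IC50 Mean: confirmatory dose-response retesting of NadD inhibitor hits first found in an ultra-high-throughput screen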
[28] = target: T3, Probable nicotinate-nucleotide adenylyltransferase; format: functional, Staphylococcus aureus subsp. aureus N315; details: read-out: IC50_Mean
[29] = Fluorescence Cell-Based Dose Response to Identify Inhibitors of Thrombin Receptor-Activating Peptide SFLLRN-Mediated P-Selectin Induction on Platelets. [Related pubchem assays: 1663 (Primary HTS), 1889 (retest at dose ), 1891 (counterscreen), 1678 (Project Summary)]; format: functional
[30] = target: Peroxisome proliferator-activated receptor gamma/Nuclear receptor corepressor 2 (Homo sapiens, UniProt P37231+Q9Y618); test: Counterscreen for NR2E3 inverse agonists: TR-FRET-based biochemical high throughput dose response assay to identify inverse agonists of the interaction between peroxisome proliferator-activated receptor gamma (PPARg) and nuclear receptor co-repressor 2 (NCOR2).; format: functional
[31] = target: Photoreceptor-specific nuclear receptor (Homo sapiens, UniProt Q9Y5X4); test: NR2E3 inverse agonists, dose response, biochemical, TR-FRET (AID 463256); format: functional
[32] = target: NADPH oxidase 1 (Homo sapiens, UniProt Q9Y5S8); format: functional, cell-based;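 further: Cell-based assay with luminescence read-out, IC50 derived from inhibitor dose-response curves; intracellular ROS from endogenous NOX1 in intact HT29 colon cancer cells; potency of inhibitors that lower the ROS luminescence signal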
[33] = target: T4, RNA-binding protein pos-1 (Caenorhabditis elegans, UniProt G5EF15); test: inhibitors of POS-1/mex-3 RNA binding, dose response, biochemical, fluorescence polarization (AID 1964);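 further: purified POS-1 fused to maltose binding protein made in E. coli; potency of compounds blocking POS-1 binding to fluorescent RNA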
T4 sequence (G5EF15 whole entry): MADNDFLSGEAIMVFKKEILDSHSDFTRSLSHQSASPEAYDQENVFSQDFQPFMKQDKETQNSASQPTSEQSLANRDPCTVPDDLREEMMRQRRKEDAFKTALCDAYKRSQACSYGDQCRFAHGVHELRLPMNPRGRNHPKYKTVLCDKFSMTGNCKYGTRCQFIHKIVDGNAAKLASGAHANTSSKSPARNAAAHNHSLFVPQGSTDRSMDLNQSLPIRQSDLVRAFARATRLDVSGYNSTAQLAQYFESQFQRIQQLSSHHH

[34] = target: T5, Zinc finger protein mex-5 (Caenorhabditis elegans, UniProt Q9XUB2); test: MEX-5/TCR-2 RNA interaction inhibitors, dose response, biochemical, C. elegans, fluorescence polarization (AID 1960)
T5 sequence (Q9XUB2 whole entry): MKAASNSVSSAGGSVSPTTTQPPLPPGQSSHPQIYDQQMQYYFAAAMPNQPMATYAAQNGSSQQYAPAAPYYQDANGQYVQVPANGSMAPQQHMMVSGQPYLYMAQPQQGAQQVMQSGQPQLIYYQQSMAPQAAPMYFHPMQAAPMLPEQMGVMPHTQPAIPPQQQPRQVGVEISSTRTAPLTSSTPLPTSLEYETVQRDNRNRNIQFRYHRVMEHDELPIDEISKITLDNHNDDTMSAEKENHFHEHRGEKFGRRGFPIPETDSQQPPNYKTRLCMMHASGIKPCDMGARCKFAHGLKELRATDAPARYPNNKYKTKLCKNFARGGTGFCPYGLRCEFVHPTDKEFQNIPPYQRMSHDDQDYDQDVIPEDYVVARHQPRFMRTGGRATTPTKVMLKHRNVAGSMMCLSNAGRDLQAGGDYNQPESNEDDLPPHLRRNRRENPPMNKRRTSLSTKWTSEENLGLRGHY

[35] = target: T6, Heat shock factor protein 1 (Mus musculus, UniProt P38532); test: inhibition of MG132-induced HSE-luciferase signal, confirmation, cell-based, NIH3T3, luminescence, dose retest (AID 2382); format: functional;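 further: NIH3T3 fibroblasts with HSF1-driven luciferase reporter stressed by proteasome inhibitor MG132; luminescence from HSF1-driven luciferase expression after 8 hours of MG132 stress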
T6 sequence (P38532 whole entry): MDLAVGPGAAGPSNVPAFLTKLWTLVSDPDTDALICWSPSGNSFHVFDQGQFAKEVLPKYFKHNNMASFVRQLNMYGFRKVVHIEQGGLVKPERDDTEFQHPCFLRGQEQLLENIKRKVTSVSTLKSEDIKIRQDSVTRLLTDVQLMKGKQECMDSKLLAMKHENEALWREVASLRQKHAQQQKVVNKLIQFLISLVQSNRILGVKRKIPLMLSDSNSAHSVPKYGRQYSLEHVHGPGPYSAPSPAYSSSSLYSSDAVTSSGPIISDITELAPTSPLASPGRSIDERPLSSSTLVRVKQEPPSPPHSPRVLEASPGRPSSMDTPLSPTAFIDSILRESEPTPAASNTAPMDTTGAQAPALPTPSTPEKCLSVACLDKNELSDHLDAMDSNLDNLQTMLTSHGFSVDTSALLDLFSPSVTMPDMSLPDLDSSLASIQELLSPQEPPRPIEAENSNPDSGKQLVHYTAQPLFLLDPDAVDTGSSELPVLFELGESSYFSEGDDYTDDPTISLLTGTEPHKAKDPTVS

[36] = M. tuberculosis H37Rv growth inhibitors, H37Rv strain (AID 1626); format: functional

Luciferin 4-monooxygenase, sequence (P08659 whole entry): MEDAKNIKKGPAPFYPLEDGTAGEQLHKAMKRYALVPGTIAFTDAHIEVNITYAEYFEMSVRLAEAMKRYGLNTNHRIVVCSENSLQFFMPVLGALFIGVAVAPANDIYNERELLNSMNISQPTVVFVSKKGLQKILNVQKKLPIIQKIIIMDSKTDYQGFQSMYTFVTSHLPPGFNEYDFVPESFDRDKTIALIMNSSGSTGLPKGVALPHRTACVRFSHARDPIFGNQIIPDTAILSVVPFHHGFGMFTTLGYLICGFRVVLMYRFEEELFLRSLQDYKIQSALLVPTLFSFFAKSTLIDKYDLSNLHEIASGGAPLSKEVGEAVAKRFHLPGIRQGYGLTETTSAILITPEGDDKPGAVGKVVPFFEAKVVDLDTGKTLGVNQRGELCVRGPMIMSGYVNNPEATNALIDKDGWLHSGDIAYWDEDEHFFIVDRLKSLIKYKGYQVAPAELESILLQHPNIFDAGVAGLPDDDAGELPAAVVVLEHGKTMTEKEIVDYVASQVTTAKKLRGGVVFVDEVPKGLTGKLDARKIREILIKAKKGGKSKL
T3 sequence (P65502 whole entry): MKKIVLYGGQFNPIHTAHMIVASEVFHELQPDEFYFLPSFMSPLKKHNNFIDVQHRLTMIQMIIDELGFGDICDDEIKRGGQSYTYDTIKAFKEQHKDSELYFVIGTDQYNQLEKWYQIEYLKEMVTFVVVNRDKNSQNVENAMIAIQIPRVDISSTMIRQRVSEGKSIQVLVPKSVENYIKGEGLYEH
Voltage-gated inwardly rectifying potassium channel KCNH2, sequence (Q12809 whole entry): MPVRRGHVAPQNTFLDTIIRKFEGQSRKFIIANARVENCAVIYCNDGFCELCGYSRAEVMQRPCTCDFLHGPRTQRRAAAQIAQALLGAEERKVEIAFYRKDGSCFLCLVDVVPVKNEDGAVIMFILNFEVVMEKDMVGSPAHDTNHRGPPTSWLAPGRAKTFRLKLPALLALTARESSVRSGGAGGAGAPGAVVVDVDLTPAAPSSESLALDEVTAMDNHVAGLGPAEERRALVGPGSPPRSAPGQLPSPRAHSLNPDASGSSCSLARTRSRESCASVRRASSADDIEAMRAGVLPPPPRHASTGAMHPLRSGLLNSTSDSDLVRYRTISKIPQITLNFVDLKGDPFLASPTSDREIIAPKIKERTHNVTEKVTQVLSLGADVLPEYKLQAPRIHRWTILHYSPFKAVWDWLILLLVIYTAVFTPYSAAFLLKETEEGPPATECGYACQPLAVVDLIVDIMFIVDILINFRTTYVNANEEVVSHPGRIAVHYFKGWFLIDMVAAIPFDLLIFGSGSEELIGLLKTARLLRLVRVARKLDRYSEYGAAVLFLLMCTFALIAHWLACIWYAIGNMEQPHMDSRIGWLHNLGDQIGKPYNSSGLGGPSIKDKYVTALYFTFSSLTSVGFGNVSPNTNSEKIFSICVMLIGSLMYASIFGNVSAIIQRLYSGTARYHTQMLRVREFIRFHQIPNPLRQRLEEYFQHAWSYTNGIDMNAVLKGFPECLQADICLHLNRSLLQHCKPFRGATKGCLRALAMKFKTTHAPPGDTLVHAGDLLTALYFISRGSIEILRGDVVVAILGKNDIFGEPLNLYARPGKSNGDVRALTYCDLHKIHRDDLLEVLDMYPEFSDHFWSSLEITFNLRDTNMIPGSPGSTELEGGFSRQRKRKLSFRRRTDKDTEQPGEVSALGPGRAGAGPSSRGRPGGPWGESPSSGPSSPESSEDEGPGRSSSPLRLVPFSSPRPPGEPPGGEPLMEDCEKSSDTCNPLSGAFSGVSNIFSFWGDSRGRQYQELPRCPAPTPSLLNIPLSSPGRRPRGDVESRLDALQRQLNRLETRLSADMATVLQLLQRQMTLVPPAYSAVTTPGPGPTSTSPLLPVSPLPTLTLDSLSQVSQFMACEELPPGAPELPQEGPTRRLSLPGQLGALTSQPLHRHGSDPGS
Mucolipin-3, sequence (Q8TDD5 whole entry): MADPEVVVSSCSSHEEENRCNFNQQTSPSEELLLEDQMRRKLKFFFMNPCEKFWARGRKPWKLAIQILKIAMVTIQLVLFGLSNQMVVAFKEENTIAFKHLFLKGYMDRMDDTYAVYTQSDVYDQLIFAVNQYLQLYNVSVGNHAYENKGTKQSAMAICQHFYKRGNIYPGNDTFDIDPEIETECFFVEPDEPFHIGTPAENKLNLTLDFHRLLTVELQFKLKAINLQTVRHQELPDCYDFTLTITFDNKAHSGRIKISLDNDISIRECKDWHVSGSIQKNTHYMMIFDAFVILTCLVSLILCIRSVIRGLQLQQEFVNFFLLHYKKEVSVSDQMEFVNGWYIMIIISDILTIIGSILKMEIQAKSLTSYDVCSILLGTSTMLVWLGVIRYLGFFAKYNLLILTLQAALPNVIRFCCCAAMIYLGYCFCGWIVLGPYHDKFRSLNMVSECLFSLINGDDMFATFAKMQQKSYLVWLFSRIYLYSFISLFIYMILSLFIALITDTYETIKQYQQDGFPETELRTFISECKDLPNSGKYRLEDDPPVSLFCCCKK
Sphingosine 1-phosphate receptor 2, sequence (O95136 whole entry): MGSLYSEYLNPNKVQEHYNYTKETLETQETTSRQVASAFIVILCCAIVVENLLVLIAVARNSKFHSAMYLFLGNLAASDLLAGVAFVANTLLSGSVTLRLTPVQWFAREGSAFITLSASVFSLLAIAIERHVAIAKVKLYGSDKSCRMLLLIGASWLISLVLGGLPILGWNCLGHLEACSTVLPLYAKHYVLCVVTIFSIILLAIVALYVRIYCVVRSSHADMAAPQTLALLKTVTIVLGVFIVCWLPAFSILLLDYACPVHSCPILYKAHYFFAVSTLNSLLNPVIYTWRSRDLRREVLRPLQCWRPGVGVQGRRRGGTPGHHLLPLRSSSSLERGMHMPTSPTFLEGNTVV
Neuropeptide Y receptor type 2, sequence (P49146 whole entry): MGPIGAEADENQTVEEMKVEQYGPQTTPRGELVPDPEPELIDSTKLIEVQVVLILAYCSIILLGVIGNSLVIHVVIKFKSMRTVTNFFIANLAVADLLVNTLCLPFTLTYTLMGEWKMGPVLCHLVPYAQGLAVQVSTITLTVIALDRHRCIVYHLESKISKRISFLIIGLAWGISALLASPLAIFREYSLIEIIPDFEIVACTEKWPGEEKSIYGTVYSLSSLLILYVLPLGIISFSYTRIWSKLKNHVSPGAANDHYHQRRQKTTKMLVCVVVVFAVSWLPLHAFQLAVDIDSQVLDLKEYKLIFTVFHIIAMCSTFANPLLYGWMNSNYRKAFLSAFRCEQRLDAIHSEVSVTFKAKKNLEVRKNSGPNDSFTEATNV
Ion channel NompC, sequence (Q7T1G6 whole entry): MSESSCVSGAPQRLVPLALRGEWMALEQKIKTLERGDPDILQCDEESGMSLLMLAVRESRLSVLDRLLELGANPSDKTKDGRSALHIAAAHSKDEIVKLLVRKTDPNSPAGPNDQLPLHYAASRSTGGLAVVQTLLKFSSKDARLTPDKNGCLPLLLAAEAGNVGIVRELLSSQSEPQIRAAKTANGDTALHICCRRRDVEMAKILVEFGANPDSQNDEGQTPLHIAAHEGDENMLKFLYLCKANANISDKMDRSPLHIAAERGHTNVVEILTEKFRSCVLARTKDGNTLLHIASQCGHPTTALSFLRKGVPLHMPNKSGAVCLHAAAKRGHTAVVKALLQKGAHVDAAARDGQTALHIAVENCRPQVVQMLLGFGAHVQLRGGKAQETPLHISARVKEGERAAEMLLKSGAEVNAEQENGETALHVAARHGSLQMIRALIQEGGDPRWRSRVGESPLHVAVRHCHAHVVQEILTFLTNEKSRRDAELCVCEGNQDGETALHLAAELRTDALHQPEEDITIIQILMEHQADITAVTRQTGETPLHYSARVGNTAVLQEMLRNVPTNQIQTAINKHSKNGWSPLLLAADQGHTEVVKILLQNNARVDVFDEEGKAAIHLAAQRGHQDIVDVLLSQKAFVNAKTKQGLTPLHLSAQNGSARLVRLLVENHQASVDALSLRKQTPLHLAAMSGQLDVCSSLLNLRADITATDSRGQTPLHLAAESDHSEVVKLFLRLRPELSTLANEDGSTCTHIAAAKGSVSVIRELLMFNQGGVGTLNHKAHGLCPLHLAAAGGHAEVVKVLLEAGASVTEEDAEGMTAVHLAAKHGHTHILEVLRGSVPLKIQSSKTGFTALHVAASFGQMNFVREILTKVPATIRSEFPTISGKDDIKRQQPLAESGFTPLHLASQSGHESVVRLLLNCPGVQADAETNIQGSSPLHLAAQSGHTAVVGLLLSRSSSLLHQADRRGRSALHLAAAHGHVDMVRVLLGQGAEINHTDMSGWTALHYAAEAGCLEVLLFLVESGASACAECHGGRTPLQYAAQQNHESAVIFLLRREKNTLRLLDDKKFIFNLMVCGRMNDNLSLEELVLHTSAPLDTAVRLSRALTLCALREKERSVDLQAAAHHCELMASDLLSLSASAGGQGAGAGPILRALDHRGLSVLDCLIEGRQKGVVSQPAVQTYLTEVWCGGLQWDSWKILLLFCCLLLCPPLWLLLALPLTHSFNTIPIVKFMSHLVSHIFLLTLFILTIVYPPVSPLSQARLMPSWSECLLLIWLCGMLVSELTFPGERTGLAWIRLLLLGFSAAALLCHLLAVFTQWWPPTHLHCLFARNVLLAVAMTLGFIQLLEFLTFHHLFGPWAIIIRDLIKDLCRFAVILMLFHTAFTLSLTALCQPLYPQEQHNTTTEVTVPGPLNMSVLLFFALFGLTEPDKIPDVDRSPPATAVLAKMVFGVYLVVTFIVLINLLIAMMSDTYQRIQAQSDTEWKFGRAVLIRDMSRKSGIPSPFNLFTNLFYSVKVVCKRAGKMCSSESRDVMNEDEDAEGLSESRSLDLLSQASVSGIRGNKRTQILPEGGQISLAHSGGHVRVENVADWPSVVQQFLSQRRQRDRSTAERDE
Genome polyprotein, sequence (Q2Q167 whole entry, the tested form may be a part): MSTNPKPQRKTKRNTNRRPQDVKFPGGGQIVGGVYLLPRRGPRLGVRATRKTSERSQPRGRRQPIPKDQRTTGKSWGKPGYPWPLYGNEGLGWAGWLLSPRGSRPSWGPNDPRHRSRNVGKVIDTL

Structure (SMILES): CC(C)C[C@@H](CC(=O)N[C@H](CC(=O)N[C@@H]1CCCC[C@H]1C(=O)N[C@H](CC(=O)N[C@@H](CCC(=O)O)CC(=O)O)CC(C)C)C(C)C)NC(=O)[C@@H]1CNCC[C@H]1N
- AC50 [1]: 31.6 µM (inconclusive)

Structure (SMILES): COc1ccc(-c2c3c(cc(C)[n+]2[O-])oc2ccc(OC)cc23)cc1
- IC50 [2]: 22 µM (active)

Structure (SMILES): O=C(/C=C/Nc1ccccc1F)c1ccc(Br)cc1
- EC50 [3]: 74.5 µM (active)
- EC50 [4]: > 112 µM (not active)
- IC50 [5]: > 55.7 µM (not active)

Structure (SMILES): COc1ccc(-c2nc(C#N)c(NC(C)c3ccccc3)o2)cc1OC (stereo not drawn)
- IC50 [6]: 7.77 µM (active)
- IC50 [7]: 3.55 µM (active)

Structure (SMILES): COc1cc(S(=O)(=O)N(C)C2CCCCC2)c(C)cc1C
- EC50 [8]: 3.06 µM (active)
- EC50 [9]: > 29.9 µM (not active)

Structure (SMILES): Cc1cc(C(=O)CSc2ncccn2)c(C)n1Cc1ccccc1
- EC50 [10]: > 30 µM (not active)

Structure (SMILES): Cc1cc([N+](=O)[O-])ccc1-c1ccc(C2Nc3ccccc3C(=O)N2O)o1 (stereo not drawn)
- EC50 [11]: > 160 µM (inconclusive)
- EC50 [12]: 10.3 µM (active)
- EC50 [13]: 10.4 µM (active)
- EC50 [14]: 8.61 µM (active)
- EC50 [15]: 1.31 µM (active)
- EC50 [16]: 2.58 µM (active)
- IC50 [17]: > 119 µM (inactive)
- AC50 [18]: 5.3 µM (active)
- IC50 [19]: > 119 µM (inactive)
- AC50 [20]: 3.32 µM (active)
- AC50 [21]: 32.9 µM (active)
- AC50 [22]: 11.3 µM (active)
- AC50 [23]: 20 µM (inconclusive)
- AC50 [24]: 25.1 µM (inconclusive)

Structure (SMILES): Cc1ccc(NC(=O)c2cc(-c3ccco3)nc3ccccc23)cc1S(=O)(=O)N1CCOCC1
- IC50 [25]: > 49.8 µM (not active)
- IC50 [26]: 5.51 µM (active)
- IC50 [27]: 8.01 µM (active)
- IC50 [28]: 26.6 µM (active)

Structure (SMILES): COc1cc2c(cc1OC)-c1cc(N3CCCCCC3)nc(=O)n1CC2
- EC50 [3]: > 112 µM (not active)
- EC50 [4]: 1.66 µM (active)
- EC50 [29]: < 0.3 µM (active)

Structure (SMILES): Cn1c(SCC(=O)Nc2cccc(F)c2)nnc1-c1cc2ccccc2o1
- IC50 [30]: 1.67 µM (active)
- IC50 [31]: 2.61 µM (active)

Structure (SMILES): O=[N+]([O-])c1ccc(-c2nc(-c3ccccc3)c(-c3ccccc3)[nH]2)cc1
- IC50 [32]: > 17 µM (not active)

Structure (SMILES): COc1ccc(/N=C/c2c(O)ccc3ccccc23)cc1
- EC50 [33]: > 300 µM (not active)
- EC50 [34]: > 300 µM (not active)
- EC50 [35]: 35.1 µM (active)
- IC50 [36]: > 100 µM (active)

Reference: ChEMBL document CHEMBL1201862, “PubChem BioAssay data set” (2004)
